In ChEMBL document CHEMBL3352341, “Design, synthesis and biological characterization of thiazolidin-4-one derivatives as promising inhibitors of Toxoplasma gondii” (Eur J Med Chem, 2014):
The source made the active and inactive calls. The rule behind the calls is not given here.

Columns and labels:
[1] = system: Toxoplasma gondii; assay: Antiparasitic activity against Toxoplasma gondii infected in human foreskin fibroblasts assessed as inhibition of replication measured as decrease in the number of tachyzoites in vacuole at 10 uM after 24 hrs by fluorescence assay; assay type: functional, organism-based
[2] = system: Toxoplasma gondii; assay: Antiparasitic activity against Toxoplasma gondii infected in human foreskin fibroblasts assessed as tachyzoite growth inhibition after 5 days by colorimetric assay; assay type: functional, organism-based; conditions: 120 h
[3] = Therapeutic index, ratio of TD50 for human foreskin fibroblasts to IC50 for Toxoplasma gondii infected in human foreskin fibroblasts; conditions: read-out: TI
[4] = Cytotoxicity against human foreskin fibroblasts after 5 days by colorimetric assay; assay type: cell-based; conditions: human foreskin fibroblasts (HFF cells), read-out: TD50

Compound	inhibition [1]	IC50 [2] [µM]	IC90 [2] [µM]	selectivity ratio [3]	CC50 at 120 h [4] [µM]
C/C(=N/N=C1\NC(=O)CS1)c1ccccc1	Active	114	262	5	≥ 320
O=C1CS/C(=N/N=C\c2ccncc2)N1Cc1ccccc1	Active	118	304	2	203
CC1CC/C(=N/N=C2/SCC(=O)N2Cc2ccccc2)C1 (configuration not stated)	Active	184	845	3	≥ 320
O=C1CS/C(=N/N=C\c2c[nH]c3ccccc23)N1	Active	166	474	3	≥ 320
CC(C)=N/N=C1/SCC(=O)N1Cc1ccccc1	Active	232	636	2	≥ 320
CCCCC/C(C)=N\N=C1/NC(=O)CS1	Active	110	686	3	320
O=C1CS/C(=N/N=C2CCCCCC2)N1Cc1ccccc1	Active	255	1530	2	≥ 320
C/C(=N/N=C1\NC(=O)CS1)c1ccc2ccccc2c1	Active	56	175	10	≥ 320
CC1CCC(=N/N=C2\NC(=O)CS2)CC1 (configuration not stated)	Active	226	777	2	≥ 320
C/C(=N/N=C1/SCC(=O)N1Cc1ccccc1)c1cccnc1	Active	82	181	3	147
COc1cc(Cc2cnc(N)nc2N)cc(OC)c1OC [TRIMETHOPRIM]	Active	13	73	43	≥ 320
CC/C(C)=N\N=C1/NC(=O)CS1	Active	133	1160	4	≥ 320
O=C1CS/C(=N/N=C\c2cccnc2)N1Cc1ccccc1	Active	111	245	2	239
O=C1CS/C(=N/N=C\c2cccs2)N1	Active	135	2680	4	≥ 320
O=C1CS/C(=N/N=C\c2ccc3c(c2)OCO3)N1	Active	≥ 320			≥ 320
C/C(CC(C)C)=N/N=C1/SCC(=O)N1Cc1ccccc1	Active	23	188	10	220
C/C(=N/N=C1/SCC(=O)N1Cc1ccccc1)c1ccccc1	Active	61	294	9	≥ 320
CC1CCC/C(=N/N=C2\NC(=O)CS2)C1 (configuration not stated)	Active	36	310	6	202
CC1CCC(=N/N=C2/SCC(=O)N2Cc2ccccc2)CC1 (configuration not stated)	Active	88	242	3	286
CC1CCC/C1=N/N=C1/SCC(=O)N1Cc1ccccc1 (configuration not stated)	Active	53	329	11	≥ 320

Compound	inhibition [1]	IC50 [2] [µM]	IC90 [2] [µM]	selectivity ratio [3]	CC50 at 120 h [4] [µM]
C/C(=N/N=C1\NC(=O)CS1)c1cccs1	Active	64	387	9	≥ 320
C/C(=N/N=C1/SCC(=O)N1Cc1ccccc1)c1cc2ccccc2oc1=O	Active	≥ 320			≥ 320
CC/C(C)=N\N=C1\SCC(=O)N1Cc1ccccc1	Active	99	392	6	≥ 320
O=C1CS/C(=N/N=C\c2ccc3c(c2)OCO3)N1Cc1ccccc1	Active	290	2140	2	≥ 320
O=C1CSC(NN=C2CCCCCC2)=N1	Active	111	387	5	≥ 320
CCCC/C(CC)=N\N=C1/NC(=O)CS1	Active	89	288	6	≥ 320
CC1CCC/C(=N/N=C2/SCC(=O)N2Cc2ccccc2)C1 (configuration not stated)	Active	58	248	2	95
O=C1CS/C(=N/N=C\c2cccnc2)N1	Active	52	268	11	≥ 320
CCCCCC/C(C)=N\N=C1\SCC(=O)N1Cc1ccccc1	Active	20	88	6	109
C/C(=N/N=C1/SCC(=O)N1Cc1ccccc1)c1ccc2ccccc2c1	Active	109	499	5	≥ 320
O=C1CS/C(=N/N=C\c2c[nH]c3ccccc23)N1Cc1ccccc1	Active	52	177	2	102
CC1CCCC/C1=N/N=C1/SCC(=O)N1Cc1ccccc1 (configuration not stated)	Active	43	171	13	≥ 320
CCC(CC)=N/N=C1/SCC(=O)N1Cc1ccccc1	Active	36	243	16	≥ 320
O=C1CS/C(=N/N=C\c2cccs2)N1Cc1ccccc1	Active	270	1660	< 1	54
O=C1CS/C(=N/N=C2CCCCCCC2)N1Cc1ccccc1	Active	43	508	5	205
CC(C)(C)C1CCCC/C1=N/N=C1\NC(=O)CS1 (configuration not stated)	Active	218	693	3	≥ 320
CC1CCCC/C1=N/N=C1\NC(=O)CS1 (configuration not stated)	Active	247	785	2	≥ 320
C/C(=N/N=C1\NC(=O)CS1)c1ccco1	Active	≥ 320			≥ 320
C/C(=N/N=C1/SCC(=O)N1Cc1ccccc1)c1ccccn1	Active	≥ 320			≥ 320
